Data on four compounds can be found in ChEMBL document CHEMBL1142806, “Synthesis and assay of isoquinoline derivatives as HIV-1 Tat-TAR interaction inhibitors” (Bioorg Med Chem Lett, 2005).

Assay [1] can be described thus: Percent inhibition of SIV-induced syncytium in CEM174 cells. It counts as functional.
Assay [2] in a line: Effective concentration required to inhibit SIV induced syncytium in CEM174 cells. It counts as functional, cell-based.
A short description of assay [3]: Binding constant to TAR at 0.393e-4 M concentration.
A short description of assay [4]: Binding constant to TAR at 0.814e-4 M concentration.
Assay [5] is described as follows: Binding constant to TAR at 1.107e-4 M concentration.
A short description of assay [6]: Binding constant to TAR at 0.357e-4 M concentration.

`N=C(N)NCCCNC(=O)c1cc2ccccc2cn1.O=S(O)O` returned an Inhibition in assay [1] of 60.7%. The same compound came in with an EC50 in assay [2] of 3.92 µM. Moreover, the K in assay [3] was 169000.
For `NCCNC(=O)c1cc2ccccc2cn1`, the Inhibition in assay [1] is recorded as 44.2%. In addition, a half-maximal effect in assay [2] (EC50) was put at 12.9 µM. The compound also displayed a K in assay [4] of 33000.
In assay [1], `NCCCNC(=O)c1cc2ccccc2cn1` had an Inhibition of 58.7%. Also, in assay [2], the concentration giving a half-maximal response (EC50) came out at 8.74 µM. This compound had a K in assay [5] of 15400.
`N=C(N)NCCNC(=O)c1cc2ccccc2cn1.O=S(O)O` yielded an Inhibition in assay [1] of 56.2%. Also, the EC50 in assay [2] stood at 6.86 µM. This compound also returned a K in assay [6] of 207000.

As usually defined, the Inhibition is the drop in the measured response relative to a control, in per cent. The term EC50 denotes the concentration that produces a half-maximal response. Read a high EC50 as a need for much substance.
